One test concerns RSV A2 strain. The experiment in a line: In vitro CPE (CytoPathic Effect) inhibition effect evaluation test, RSV type A. The format is cell-based. A digest of the protocol:
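EC50 is the concentration giving 50% inhibition of virus-induced cytopathic effect, fitted by nonlinear regression from CellTiter-Glo 2.0 viability. Compounds in 3-fold series were co-incubated at 37 °C with HEp-2 cells and RSV: A2 strain for 4 days, B (Wash/18537) for 5 days; uninfected wells served as control.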

The test system of test [1] is RSV B (Wash/18537 strain). The test is described as follows: In vitro CPE (CytoPathic Effect) inhibition effect evaluation test, RSV type B. The format is cell-based. The procedure: The test sample is diluted in advance to an appropriate concentration with DMSO, and 3-fold series of serial dilutions were prepared on a 384-well plate (0.32 μL/well). HEp-2 cells (CCL-23; ATCC) adjusted at appropriate number (2.4×10^5 cells/mL) in 2% FBS E-MEM (prepared by adding kanamycin and FBS to Eagle's Minimum Essential Medium; Invitrogen) were added at 12.5 μL/well to the 384-well plate previously aliquoted with the test samples. The RSV A2 strain was diluted to an appropriate concentration in a culture medium and added to the 384-well plate containing the test sample at 12.5 μL/well. The culture medium was added additionally to the 384-well plate, and the test was started with 50 μL/well. Control wells were prepared with only virus-free culture medium. The plate was incubated in a 5% CO2 incubator at 37° C. for 4 days, and the plate was then placed at room temperature for 30 minutes. CellTiter-Glo (registered trademark) 2.0 assay (Promega) was added at 15 μL/well, mixed for 30 seconds, and the plate was placed for approximately 1 hour. The luminescent signal was then measured by EnVision (PerkinElmer). The inhibitory effect of the test agents on RSV-induced CPE was calculated as 0% and 100% inhibition rate for each sample concentration based on the level of remaining viable cells by CellTiter-Glo (registered trademark) 2.0, with the EC50 value for each compound calculated by nonlinear regression as the concentration that inhibits RSV-induced CPE by 50%. In the case of evaluation against RSV type B, RSV B (Wash/18537 strain) was infected in the same manner as the type A, cultured for 5 days, and quantitated in the same manner as for the A2 strain.
In general terms: Damage to the host cells serves as the signal in cytopathic effect assays.

Where [2] appears, read: human respiratory syncytial virus, inhibitory effect against RSV type A (RSV A2 strain), HEp-2 cells, CPE inhibition, read-out: EC50.
Setting [3] is: human respiratory syncytial virus, inhibitory effect against RSV type B, CPE inhibition, read-out: EC50.
The mark [4] stands for this setting: inhibitory effect against RSV type A (RSV A2 strain), HEp-2 cells, CPE inhibition, read-out: EC50.
[5] abbreviates: inhibitory effect against RSV type B, CPE inhibition, read-out: EC50.
The mark [6] stands for this setting: human respiratory syncytial virus, HEp-2, 96 h, read-out: EC50, inhibitory effect against RSV type A (CPE inhibition).
Setting [7] is: human respiratory syncytial virus, HEp-2, 120 h, HEp-2 cells, RSV B (Wash/18537 strain), 5 days, CellTiter-Glo, read-out: EC50, inhibitory effect against RSV type B (CPE inhibition).

Read-outs that look alike come from different tables or passages of the source. Bounds are passed on as bounds.

What is called EC50 is the concentration at which the effect is half-maximal. On to `O=C(NC1(C(=O)O)C2CC3CC(C2)CC1C3)c1cnc(N2CC3(CCCCC3)c3cc(O[C@H]4CC[C@H](n5cncn5)CC4)ccc32)nc1C(F)(F)F` (stereo partly drawn) [Compound I-501], for which the EC50 (with RSV A2 strain (setting [2]); in test [1] (setting [3])) was under 10 nM throughout.
Take `O=C(NC1(C(=O)O)C2CC3CC(C2)CC1C3)c1cnc(N2CC3(CCOCC3)c3cc(OCCC4CCOCC4)ccc32)nc1C(F)(F)F` (stereo not drawn) [Compound I-83]: the EC50 (in the test with RSV A2 strain (setting [4]); in test [1] (setting [5])) was under 10 nM throughout.
`CC(F)(F)c1nc(N2CC3(CCOCC3)c3cc(O[C@H]4CC[C@H](N5CC(F)(F)C5)CC4)ccc32)ncc1C(=O)NC1(C(=O)O)C2CC3CC(C2)CC1C3` (stereo partly drawn) [Compound I-506]: the EC50 (in the test on RSV A2 strain (setting [2]); in test [1] (setting [3])) was under 10 nM in each case.
With `CC(F)(F)c1nc(N2CC3(CC3)c3cc(OC4CCN(c5ncc(F)cn5)CC4)ccc32)ncc1C(=O)NC1(C(=O)O)C2CC3CC(C2)CC1C3` (stereo not drawn) [Compound I-603], the EC50 (with RSV A2 strain (setting [2]); in test [1] (setting [3])) was under 10 nM in each case.
For `CC(F)(F)c1nc(N2CC3(CCOCC3)c3cc(O[C@H]4CC[C@H](N5CC(F)(F)C5)CC4)ncc32)ncc1C(=O)N[C@]1(C(=O)O)[C@@H]2CC3C[C@H]1C[C@@](F)(C3)C2` [Compound I-601], the EC50 (in the test with RSV A2 strain (setting [2]); in test [1] (setting [3])) was under 10 nM throughout.
With `O=C(NC1(C(=O)O)C2CC3CC(C2)CC1C3)c1cnc(-c2cn(C3CCC(F)(F)CC3)c3cc(-n4ncc5c4CCN(CC(F)(F)F)C5)ccc23)nc1C(F)(F)F` (stereo not drawn) [Compound I-573], the EC50 (with RSV A2 strain (setting [2]); in test [1] (setting [3])) was under 10 nM each time.
As to `CC(F)(F)c1nc(-c2cn(C3CCC(F)CC3)c3cc(O[C@H]4CC[C@H](N5CC(F)(F)C5)CC4)ccc23)ncc1C(=O)NC1(C(=O)O)C2CC3CC(C2)CC1C3` (single isomer, unassigned) [Compound I-568], the EC50 (in the test on RSV A2 strain (setting [2]); in test [1] (setting [3])) was under 10 nM in each case.
For `COC[C@@H](C)n1cc(-c2ncc(C(=O)NC3(C(=O)O)C4CC5CC(C4)CC3C5)c(C(C)(F)F)n2)c2ccc(O[C@H]3CC[C@H](N4CC(F)(F)C4)CC3)cc21` (stereo partly drawn) [Compound I-569], the EC50 (in the test on RSV A2 strain (setting [2]); in test [1] (setting [3])) was under 10 nM in each case.
In the case of `O=C(NC1(C(=O)O)C2CC3CC(C2)CC1C3)c1cnc(N2CC3(CCOCC3)c3cc(O[C@H]4CC[C@H](n5cccn5)CC4)ccc32)nc1C(F)(F)F` (stereo partly drawn) [Compound I-193], the EC50 (in the test with RSV A2 strain (setting [2]); in test [1] (setting [3])) was under 10 nM throughout.
Regarding `N#CCN1CCC(Oc2ccc3c(c2)C2(CCCCC2)CN3c2ncc(C(=O)NC3(C(=O)O)C4CC5CC(C4)CC3C5)c(C(F)(F)F)n2)CC1` (stereo not drawn) [Compound I-521], the figures for the EC50 (with RSV A2 strain (setting [2]); in test [1] (setting [3])) were under 10 nM and 10 to 100 nM, respectively.
Regarding `CC(F)(F)c1nc(N2CC3(CCOCC3)c3cc(OC4CCC(N5CCC(F)(F)C5)CC4)ccc32)ncc1C(=O)NC1(C(=O)O)C2CC3CC(C2)CC1C3` (stereo not drawn) [Compound I-541], the EC50 (in the test on RSV A2 strain (setting [4]); in test [1] (setting [5])) was under 10 nM each time.
As for `O=C(NC1(C(=O)O)C2CC3CC(C2)CC1C3)c1ccc(-c2cn(-c3ccccc3)c3cc(OC4CCN(c5ncccn5)CC4)ccc23)nc1C(F)(F)F` (stereo not drawn) [Compound I-148], the 50% effective concentration (EC50) in the test with RSV A2 strain (setting [6]) was found to be 1.5 nM; in test [1] (setting [7]), 2.8 nM.
Regarding `O=C(NC1(C(=O)O)C2CC3CC(C2)CC1C3)c1ccc(-c2cn(C3CC3)c3cc(O[C@H]4CC[C@H](N5CC(F)(F)C5)CC4)ccc23)nc1C(F)(F)F` (stereo partly drawn) [Compound I-513], the EC50 (in the test with RSV A2 strain (setting [2]); in test [1] (setting [3])) was under 10 nM each time.
With `O=C(NC1(C(=O)O)C2CC3CC(C2)CC1C3)c1cnc(N2CC3(CCCCC3)c3cc(OC4CN(c5ncc(F)cn5)C4)ccc32)nc1C(F)(F)F` (stereo not drawn) [Compound I-494], the half-maximal effective concentration (EC50) (with RSV A2 strain (setting [2]); in test [1] (setting [3])) was under 10 nM each time.
As for `CC(F)(F)c1nc(N2CC3(CC3)c3cc(OC4CCN(CC(F)(F)F)CC4)ccc32)ncc1C(=O)NC1(C(=O)O)C2CC3CC(C2)CC1C3` (stereo not drawn) [Compound I-604], the EC50 (with RSV A2 strain (setting [2]); in test [1] (setting [3])) was under 10 nM in each case.
As for `CC(F)(F)c1nc(N2CC3(CCOCC3)c3cc(OC4CCN(CC5COC5)CC4)ccc32)ncc1C(=O)NC1(C(=O)O)C2CC3CC(C2)CC1C3` (stereo not drawn) [Compound I-532], the EC50 is under 10 nM with RSV A2 strain (setting [2]) and 10 to 100 nM in test [1] (setting [3]).
The corresponding values for `O=C(NC1(C(=O)O)C2CC3CC(C2)CC1C3)c1ccc(-c2cn(-c3ccccn3)c3cc(OC4CCN(c5ncccn5)CC4)ccc23)nc1C(F)(F)F` (stereo not drawn) [Compound I-175] are under 10 nM and under 10 nM.
The like results for `CCC1(CC)CN(c2ncc(C(=O)NC3(C(=O)O)C4CC5CC(C4)CC3C5)c(C(C)(F)F)n2)c2ccc(OC3CCN(CC(F)(F)F)CC3)cc21` (stereo not drawn) [Compound I-589] were, in that order, under 10 nM and under 10 nM.
As for `CC(F)(F)c1nc(-c2cn(C3CCOCC3)c3cc(OC4CC(N5CC(F)(F)C5)C4)ccc23)ncc1C(=O)NC1(C(=O)O)C2CC3CC(C2)CC1C3` (single isomer, unassigned) [Compound I-621], the EC50 (in the test on RSV A2 strain (setting [2]); in test [1] (setting [3])) was under 10 nM throughout.
On to `CC(F)(F)c1nc(-c2cn(C3CCC4(CC3)COC4)c3cc(O[C@H]4CC[C@H](N5CC(F)(F)C5)CC4)ccc23)ncc1C(=O)NC1(C(=O)O)C2CC3CC(C2)CC1C3` (stereo partly drawn) [Compound I-580], for which the EC50 (in the test with RSV A2 strain (setting [2]); in test [1] (setting [3])) was under 10 nM in each case.
Take `O=C(NC1(C(=O)O)C2CC3CC(C2)CC1C3)c1ccc(-c2cn(-c3cccnc3)c3cc(OC4CCN(c5ncccn5)CC4)ccc23)nc1C(F)(F)F` (stereo not drawn) [Compound I-177]: the EC50 (in the test on RSV A2 strain (setting [2]); in test [1] (setting [3])) was under 10 nM in each case.
`O=C(NC1(C(=O)O)C2CC3CC(C2)CC1C3)c1cnc(N2CCc3cc(OCCC4CCOCC4)ccc32)nc1C(F)(F)F` (stereo not drawn) [Compound I-23]: the EC50 in the test with RSV A2 strain (setting [6]) turned out to be 0.96 nM; in test [1] (setting [7]) it was 16 nM.
Regarding `CC(F)(F)c1nc(N2CC3(CCOCC3)c3cc(OC4CCN(C5CSC5)CC4)ccc32)ncc1C(=O)NC1(C(=O)O)C2CC3CC(C2)CC1C3` (stereo not drawn) [Compound I-564], the EC50 (in the test with RSV A2 strain (setting [2]); in test [1] (setting [3])) was under 10 nM throughout.
Consider `CC(F)(F)c1nc(N2CC3(CCOCC3)c3cc(O[C@H]4CC[C@H](Nc5ncc(F)cn5)CC4)ccc32)ncc1C(=O)NC1(C(=O)O)C2CC3CC(C2)CC1C3` (stereo partly drawn) [Compound I-553], for which the EC50 is under 10 nM in the test on RSV A2 strain (setting [2]) and 10 to 100 nM in test [1] (setting [3]).
For `O=C(NC1(C(=O)O)C2CC3CC(C2)CC1C3)c1cnc(N2CC3(CCCCC3)c3cc(OC4CCC(=NOC5CC(F)(F)C5)CC4)ccc32)nc1C(F)(F)F` (racemic) [Compound I-475], the EC50 in the test with RSV A2 strain (setting [4]) is under 10 nM; in test [1] (setting [5]), 10 to 100 nM.
Turning to `CC(F)(F)c1nc(N2CC3(CCOCC3)c3cc(O[C@@H]4CCN(c5ncc(F)cn5)C4)ccc32)ncc1C(=O)NC1(C(=O)O)C2CC3CC(C2)CC1C3` (stereo partly drawn) [Compound I-560], the EC50 (in the test with RSV A2 strain (setting [2]); in test [1] (setting [3])) was under 10 nM in each case.
In the case of `CC(F)(F)c1nc(-c2cn(C3CCC(F)(F)CC3)c3cc(O[C@H]4CC[C@H](N5CC(F)(F)C5)CC4)ccc23)ncc1C(=O)NC1(C(=O)O)C2CC3CC(C2)CC1C3` (stereo partly drawn) [Compound I-481], the EC50 (in the test on RSV A2 strain (setting [2]); in test [1] (setting [3])) was under 10 nM each time.
As to `Cn1cc2c(n1)CCC(Oc1ccc3c(c1)C1(CCOCC1)CN3c1ncc(C(=O)NC3(C(=O)O)C4CC5CC(C4)CC3C5)c(C(F)(F)F)n1)C2` (racemic) [Compound I-189], the EC50 (in the test on RSV A2 strain (setting [2]); in test [1] (setting [3])) was under 10 nM each time.
For `O=C(NC1(C(=O)O)C2CC3CC(C2)CC1C3)c1cnc(N2CC3(CCCCC3)c3cc(OC4CCC(N5CC(F)(F)C5)CC4)ccc32)nc1C(F)(F)F` (stereo not drawn) [Compound I-438], the EC50 (in the test with RSV A2 strain (setting [2]); in test [1] (setting [3])) was under 10 nM each time.
On to `CC(F)(F)CN1CCC(Oc2ccc3c(-c4ncc(C(=O)NC5(C(=O)O)C6CC7CC(C6)CC5C7)c(C(F)(F)F)n4)cn(C4CC4)c3c2)CC1` (stereo not drawn) [Compound I-544], for which the EC50 was under 10 nM in the test on RSV A2 strain (setting [2]) and 10 to 100 nM in test [1] (setting [3]).
The like results for `O=C(NC1(C(=O)O)C2CC3CC(C2)CC1C3)c1ccc(-c2nn(C3CCOCC3)c3cc(OC4CCN(c5ncccn5)CC4)ccc23)nc1C(F)(F)F` (stereo not drawn) [Compound I-158] were, in that order, under 10 nM and under 10 nM.
The like results for `O=C(NC1(C(=O)O)C2CC3CC(C2)CC1C3)c1cnc(N2CCc3cc(OCCN4CCOCC4)ccc32)nc1C(F)(F)F` (stereo not drawn) [Compound I-31] were, in that order, under 10 nM and 10 to 100 nM.
Turning to `CC(F)(F)c1nc(N2CC3(CCCCC3)c3cc(OC4CCN(c5nnc(C(F)(F)F)s5)CC4)ccc32)ncc1C(=O)NC1(C(=O)O)C2CC3CC(C2)CC1C3` (stereo not drawn) [Compound I-535], the values for the EC50 (in the test with RSV A2 strain (setting [2]); in test [1] (setting [3])) were under 10 nM and 10 to 100 nM, respectively.
